Residues, ends and D or L forms follow the SMILES beside them.
Key:
HaCaT keratinocytes = test system: HaCaT keratinocytes
From the text: Cell viability is expressed as percentage with respect to the control (cells not treated with the peptide). Data points represent the mean of triplicate samples ±SEM.

[1] = test system: A. castellani (ATCC 50370) trophozoites; test: Acanthamoeba viability, ethidium homodimer-1 time lapse microscopy; format: cell-based, Acanthamoeba castellani
Description: FIGS. 8A-8D show the effect of Esc-1a(1-21)NH2 on the viability of Acanthamoeba castellani. The amoeba were seeded in to chamber slides, then a fluorescent viability dye (ethidium homodimer-1) and 500 μg/ml Esc-1a(1-21)NH2 added. The amoebas were viewed by time lapse microscopy in an environmental chamber for 6 hours. Images are from before peptide addition at time zero in healthy trophozoites (FIG. 8A), then 10 minutes (FIG. 8B), 2 hours (FIG. 8C) and 6 hours (FIG. 8D) post addition of peptide Esc-1a(1-21)NH2. […] Significant amounts of debris accumulated over time indicating rupture of the cells.
1×10^4 A. castellani (ATCC 50370) trophozoites in PYG 712 growth medium were transferred to coverglass chamber slides and allowed to attach overnight. The cells were then incubated with PYG 712 medium containing a 1:100 dilution of ethidium homodimer-1 (EthD-1) for 15 minutes at room temperature. EthD-1 is a cell-impermeant viability indicator dye that is taken up by cells with a compromised plasma membrane and fluoresces red/orange when bound to DNA. Serial brightfield and fluorescence images were taken using a DeltaVision Spectris Core fluorescence microscope every 3 minutes for 30 minutes to visualize cellular health prior to addition of Esc-1a(1-21)NH2. The medium was then replaced with 200 μl growth media containing 125, 250 or 500 μg/ml Esc-1a(1-21)NH2 and 1:100 diluted ethidium homodimer-1. Brightfield and fluorescence images were taken every 3 minutes for another 6 hours. Serial images were compiled together using Softworx software (Applied Precision) to generate time-lapse videos.

P. aeruginosa ATCC 27853 = test: Bactericidal activity in the presence of basal human tears; format: cell-based, Pseudomonas aeruginosa; conditions: for percentage of bacteria killed: 20 μM peptide, 90 minutes
Description: (§1) FIGS. 2A-2B show the effects of human basal tears on the bactericidal activity of Esc-1a(1-21)NH2 against P. aeruginosa ATCC 27853 (FIG. 2A) and ATCC 19660 (FIG. 2B). Bacterial cells were incubated with the peptide in the presence of different concentrations of tears collected from eighteen consenting adult volunteers with normal ocular surface and pooled. Aliquots were withdrawn for cell counting at different time intervals. Mean data (n=3), expressed as the percentage of bacteria killed by the peptide are shown. *Indicates significant difference, p<0.05.
(§2) 2×10^6 CFU/ml P. aeruginosa (ATCC 27853 or ATCC 19660) were incubated with 1-20 μM Esc-1a(1-21)NH2 in the presence of 50% or 70% v/v tears and aliquots withdrawn, plated and counted after 30, 90 and 120 minutes (n=3).

P. aeruginosa ATCC 19660 = test: as above; format: cell-based, Pseudomonas aeruginosa; conditions: 10 μM peptide, within 30 minutes, 70% (v/v) basal tears
Description: as §1, §2

[2] = MTT viability assay, Raw 264.7 macrophages; conditions: mouse, Raw 264.7 macrophages
Description: Cell viability is expressed as percentage with respect to the control (cells not treated with the peptides). Data points represent the mean of triplicate samples ±SEM. […] The levels of statistical significance between the two peptides are indicated as follows: **p<0.01, ***p<0.001.
Cells were plated in wells of a microtiter plate, at 4×10^4 cells/well in DMEM supplemented with 2 mM glutamine and 2% FBS (for A549 cells) or DMEM containing 2 mM glutamine, non-essential amino acids (NEAA), sodium pyruvate and 2% FBS (for Raw 264.7 macrophages). After overnight incubation at 37° C. in a 5% CO2 atmosphere, the medium was replaced with 100 μl fresh serum-free medium supplemented with the peptides at different concentrations. After 24 h of peptide treatment, cell viability was determined by a MTT assay.

[3] = test system: Pseudomonas aeruginosa ATCC 19660 induced keratitis; test: Neutrophil infiltration into cornea by myeloperoxidase (MPO) assay; format: in vivo, C57BL/6 mice
From the text: Corneas were harvested 1,3 and 5 days after infection and neutrophil infiltration determined by MPO assay. […] PI=post infection, Pre-trt=pretreatment with Esc-1a(1-21)NH2. *Indicates significant difference, p<0.05, among PBS control and peptide treated groups.
To determine a clinical score, neutrophil infiltration by myeloperoxidase assay (MPO assay) and viable bacterial cell counts in infected and control corneas of C57BL/6 mice with Pseudomonas aeruginosa ATCC 19660 keratitis following pre-treatment and post-infection treatment with Esc-1a(1-21)NH2 up to 5 days post-infection (PI) the following experiment was performed. In these experiments pre-treatment refers to a group of animals where treatment was initiated 24 hrs before infection then continued after infection.
An MPO assay was used to quantitate polymorphonuclear cell numbers in the cornea from both infected corneas (n=2/group/time point) of Esc-1a(1-21)NH2 treated and control (PBS) treated animals. Briefly, corneas were harvested at days 1, 3 and 5 PI. The change in absorbance at 450 nm was monitored for one hour at 15-30 minute intervals. The results were expressed as units of MPO per cornea. One unit of MPO activity is equivalent to 2*10^5 polymorphonuclear cells.
Harvested and pooled corneas (2 mice/group) in 200 μl of sterile PBS/cornea. Placed the harvested corneas on ice until further processing. Homogenized the corneas for 30-45 seconds and briefly sonicated them for 10-20 seconds.
C. Added 10 μl of 0.5% HTAB (hexadecyltrimethylammonium bromide in potassium phosphate buffer 50 mM pH 6) to 90 μl homogenate (*stored the remaining homogenate on ice to obtain recoverable P. aeruginosa counts for viability assay).
D. Sonicated samples 2×5 seconds then freeze thawed three times on liquid nitrogen.
E. Centrifuged at 14000*g at 4° C. for 20 minutes.
F. To 10 ml of phosphate buffer added 0.00167 g 0-dianisidine dihydrochloride and 1.67 μl (0.05%) H2O2. 90 μl of this was added to each well to produce the color reaction (protected the solution from light).
G. Made up standards for MPO using phosphate buffer based on the initial concentration of the MPO. Double diluted 25 μl MPO standard & carry 25 μl over since 10 μl was needed per well (run in duplicate).
H. Added 10 μl of each standard to 96 well plate and 10 μl sample supernatant (in triplicate).
I. Added 90 μl phosphate buffer containing O-d-d and H2O2 to the plate. Popped bubbles and read on spectrophotometer at 450 nm at 3 minutes, 5 minutes, 10 minutes, 15 minutes, 30 minutes, 45 minutes and 60 minutes.
The MPO units per cornea were determined and the mean from 3 independent experiments was plotted (FIG. 6).

## CC[C@H](C)[C@H](NC(=O)CN)C(=O)N[C@@H](Cc1ccccc1)C(=O)N[C@@H](CO)C(=O)N[C@@H](CCCCN)C(=O)N[C@@H](CC(C)C)C(=O)N[C@@H](C)C(=O)NCC(=O)N[C@@H](CCCCN)C(=O)N[C@@H](CCCCN)C(=O)N[C@H](C(=O)N[C@@H](CCCCN)C(=O)N[C@@H](CC(N)=O)C(=O)N[C@@H](CC(C)C)C(=O)N[C@@H](CC(C)C)C(=O)N[C@H](C(=O)N[C@@H](CO)C(=O)NCC(=O)N[C@@H](CC(C)C)C(=O)N[C@@H](CCCCN)C(=O)NCC(N)=O)[C@@H](C)CC)[C@@H](C)CC [Esc-1a(1-21)NH2] (H-GIFSKLAGKKIKNLLISGLKG-NH2; N-terminus assumed)
HaCaT keratinocytes; 2 h treatment, 1-64 μM
  reduction in the number of metabolically-active keratinocytes: did not show any remarkable reduction
HaCaT keratinocytes; 24 h, 32 μM and 64 μM
  reduction in the percentage of metabolically-active cells: approximately 20%
[1]; 125 μg/ml, 6 hours
  trophozoites stained positively with EthD-1: approximately 67%
[1]; 250 μg/ml, 10 minutes
  trophozoites stained positively with EthD-1: approximately 82%
[1]; 250 μg/ml, 6 hours
  trophozoites stained positively with EthD-1: ~100%
[1]; 500 μg/ml
  time until orange/red fluorescence (dead/dying cells) detected: ≤ 10 min
P. aeruginosa ATCC 27853; 50% v/v basal tears
  percentage of bacteria killed: 100%
P. aeruginosa ATCC 27853; 70% v/v basal tears
  percentage of bacteria killed: 70%
P. aeruginosa ATCC 27853; 1-20 μM peptide, 50% or 70% v/v basal tears
  retention of activity in basal tears: the majority of Esc-1a(1-21)NH2 activity was retained
P. aeruginosa ATCC 19660
  killing of bacteria: complete killing
[2]
  CC50 at 24 h: 64 µM
[3]; pre-treated, day 1 PI
  normalized MPO activity per cornea: 1.55±0.4 MPO units
[3]; pre-treated, day 3 PI
  normalized MPO activity per cornea: 1.66±0.13 MPO units
[3]; pre-treated, day 5 PI
  normalized MPO activity per cornea: 1.55±0.28 MPO units
[3]; treated after infection, day 1 PI
  normalized MPO activity per cornea: 1.69±0.40 MPO units
[3]; treated after infection, day 3 PI
  normalized MPO activity per cornea: 1.84±0.16 MPO units
[3]; treated after infection, day 5 PI
  normalized MPO activity per cornea: 1.82±0.42 MPO units
